From patent US5571816A, “Pyrimidines” (Hoechst Aktiengesellschaft, priority 1992, dated 1996)
Structures can show the parent of a compound that is named as a salt. Where two headings read alike, the source gives them in different places. Each block holds one compound with its values, some of them ahead of it.

How the values were obtained:
serum lipoproteins = experiment: Effect on serum lipoproteins of normolipemic male rats in a subchronic experiment; type: in vivo; details: Rattus norvegicus, po, by stomach tube, 7 administrations; for change in vivo at 3 mg/kg: 3 mg/kg/day; for change in vivo at 10 mg/kg: 10 mg/kg/day; for change in vivo at 30 mg/kg: 30 mg/kg/day
Method: 3. In vivo, the increased LDL receptor activity in experimental animals is reflected by reduction in the lipoprotein fractions which can be metabolized by the LDL receptor (apoB/E receptor), i.e. a reduction in the LDL and VLDL levels is observed. The following test was carried out:
Effect on serum lipoproteins of normolipemic male rats in a subchronic experiment
Groups of in each case 10 male rats of the HOE: WISKf (SPF 71) strain with an initial weight above 180 g received once a day (in the morning) the test product or the comparison product in 1% aqueous ®Tylose MH 300 solution by stomach tube (0.5 ml/100 g of body weight); the control group in each case received only the vehicle. The last (7th) administration took place 24 hours before removal of blood and sacrifice. There was free access to food and water during the test. The food was withdrawn 24 hours before the removal of blood.
The serum from all 10 rats in a group was pooled for the analysis of the serum lipoproteins. The serum lipoproteins were separated with a preparative ultracentrifuge (KONTRON TGA 65, Rotor BECKMAN 50.4 Ti).
The following conditions specified by Koga, S., Horwitz, D. L., and Scanu, A. M., Journal of Lipid Research 10, 577 (1969) and Havel, R. J., Eder, H. A., and Bragdon, H. H., J. Clin. Invest. 34, 1345 (1955) were used to separate VLDL and LDL: 1. VLDL: Density<1.006, 40,000 rpm for 16 hours 2. LDL: Density 1.006-1.04, 40,000 rmp for 16 hours
Test kits from BOEHRINGER/Mannheim were used for the enzymatic determination of cholesterol and triglycerides in the separated lipoprotein fractions (cf. Siedel, J., Schlumberger, H., Klose, S., Ziegenhorn, J. and Wahlefeld, A. W., J. Clin. Chem. Clin. Biochem. 19, 838 (1981) and Wahlefeld, A. W., in: H. O. Bergmeier: Methoden der enzymatischen Analyse (Methods of Enzymatic Analysis), 2nd edition, Volume II, Verlag Chemie 1974, page 1878). The proteins were determined by the method of Lowry (Lowry, O. H., Roseborough, N. H., Farr, A. L. and Randell, R. J., J. Biol. Chem. 193, 265 (1951)).
Clofibrate was used as comparison product.

[1] = Solubility in water of salts (and free bases); type: physicochemical; details: for solubility: water
[2] = read-out: Serum LDL cholesterol, % change from control at end of treatment
[3] = read-out: Serum LDL protein, % change from control at end of treatment
[4] = read-out: Serum VLDL cholesterol, % change from control at end of treatment
[5] = read-out: Serum VLDL protein, % change from control at end of treatment
[6] = read-out: Serum VLDL triglycerides, % change from control at end of treatment
[7] = Table 2, salts of compounds I, temp. by No. [°C]: 1 25.5, 2 23.0, 3 22.4, 4 22.4, 5 22.0, 6 25.0, 7 25.5, 8 25.5, 9 25.5, 10 23.5, 11 23.5, 12 25.0, 13 24.0, 14 23.0, 15 22.0, 16 24.5, 17 22.5, 18 22.0
[8] = Table 2, salts of compounds I, temp. by No. [°C]: 1 25.5, 2 23.0, 3 22.4, 4 22.4, 5 22.0, 6 25.0, 7 25.5, 8 25.5, 9 25.5, 10 23.5, 11 23.5, 12 25.0, 13 24.0, 14 23.0, 15 22.0, 16 24.5, 17 22.5, 18 22.0, read-out: Solubility in water, Concentration in % by wt.
[9] = Table 1, N-H analogs, temp. by No. [°C]: 1 25.0, 2 23.0, 3 26.2, 4 25.1, 5 25.2, 6 24.1, 7 24.5, 8 24.2, 9 24.2, 10 25.7, 11 25.8, read-out: Solubility in water, Concentration in % by wt.
[10] = Table 1, N-H analogs, temp. by No. [°C]: 1 25.0, 2 23.0, 3 26.2, 4 25.1, 5 25.2, 6 24.1, 7 24.5, 8 24.2, 9 24.2, 10 25.7, 11 25.8, read-out: Solubility in water, Molarity × 10^-3
[11] = Table 1, N-H analogs, temp. by No. [°C]: 1 25.0, 2 23.0, 3 26.2, 4 25.1, 5 25.2, 6 24.1, 7 24.5, 8 24.2, 9 24.2, 10 25.7, 11 25.8

Structure (SMILES): CN(C(=O)c1cnc(N2CC(C)(C)NC2=O)nc1N)c1cc(C(F)(F)F)ccc1F [Example 28]
- change in vivo at 3 mg/kg (serum lipoproteins; [2]): 1%
- change in vivo at 3 mg/kg (serum lipoproteins; [3]): -26%
- change in vivo at 3 mg/kg (serum lipoproteins; [4]): -2%
- change in vivo at 3 mg/kg (serum lipoproteins; [5]): -29%
- change in vivo at 10 mg/kg (serum lipoproteins; [2]): -33%
- change in vivo at 10 mg/kg (serum lipoproteins; [3]): -68%
- change in vivo at 10 mg/kg (serum lipoproteins; [4]): -74%
- change in vivo at 10 mg/kg (serum lipoproteins; [5]): 41%
- change in vivo at 10 mg/kg (serum lipoproteins; [6]): 46%
- change in vivo at 30 mg/kg (serum lipoproteins; [2]): -75%
- change in vivo at 30 mg/kg (serum lipoproteins; [3]): -62%
- change in vivo at 30 mg/kg (serum lipoproteins; [4]): -79%
- change in vivo at 30 mg/kg (serum lipoproteins; [5]): -49%
- change in vivo at 30 mg/kg (serum lipoproteins; [6]): -56%
- 1 part by mass dissolves in ... parts by H2O [1, 7]: 72.7 parts by H2 O
- solubility [1, 8]: 13600 µg/mL

Structure (SMILES): CCN(C(=O)c1cnc(N2CC(C)(C)NC2=O)nc1N)c1cc(C(F)(F)F)ccc1F [Example 32]
- change in vivo at 10 mg/kg (serum lipoproteins; [2]): -54%
- change in vivo at 10 mg/kg (serum lipoproteins; [3]): -36%
- change in vivo at 10 mg/kg (serum lipoproteins; [4]): -85%
- change in vivo at 10 mg/kg (serum lipoproteins; [5]): -73%
- change in vivo at 10 mg/kg (serum lipoproteins; [6]): -68%
- change in vivo at 30 mg/kg (serum lipoproteins; [2]): -76%
- change in vivo at 30 mg/kg (serum lipoproteins; [3]): -49%
- change in vivo at 30 mg/kg (serum lipoproteins; [4]): -100%
- change in vivo at 30 mg/kg (serum lipoproteins; [5]): -39%
- change in vivo at 30 mg/kg (serum lipoproteins; [6]): -80%
- solubility [1, 8]: 10100 µg/mL

Structure (SMILES): CC(C)(C)CN(C(=O)c1cnc(N2CC(C)(C)NC2=O)nc1N)c1cccc(C(F)(F)F)c1 [Example 37]
- change in vivo at 10 mg/kg (serum lipoproteins; [2]): -39%
- change in vivo at 10 mg/kg (serum lipoproteins; [3]): -21%
- change in vivo at 10 mg/kg (serum lipoproteins; [4]): -56%
- change in vivo at 10 mg/kg (serum lipoproteins; [5]): -30%
- change in vivo at 10 mg/kg (serum lipoproteins; [6]): -40%
- change in vivo at 30 mg/kg (serum lipoproteins; [2]): -76%
- change in vivo at 30 mg/kg (serum lipoproteins; [3]): -49%
- change in vivo at 30 mg/kg (serum lipoproteins; [4]): -85%
- change in vivo at 30 mg/kg (serum lipoproteins; [5]): -48%
- change in vivo at 30 mg/kg (serum lipoproteins; [6]): -75%
- 1 part by mass dissolves in ... parts by H2O [1, 7]: 53.3 parts by H2 O
- solubility [1, 8]: 19100 µg/mL

Structure (SMILES): CCN(C(=O)c1cnc(N2CC(C)NC2=O)nc1N)c1cccc(C(F)(F)F)c1 (stereo not shown) [Example 58, 4-amino-2-(4-methyl-2-oxo-1-imidazolidinyl)pyrimidine-5-carboxylic acid N-ethyl-N-(3-trifluoromethylphenyl)amide hydrochloride]
- change in vivo at 30 mg/kg (serum lipoproteins; [2]): 46%
- change in vivo at 30 mg/kg (serum lipoproteins; [3]): -25%
- change in vivo at 30 mg/kg (serum lipoproteins; [4]): -59%
- change in vivo at 30 mg/kg (serum lipoproteins; [5]): -22%
- change in vivo at 30 mg/kg (serum lipoproteins; [6]): -40%
- 1 part by mass dissolves in ... parts by H2O [1, 7]: 6.8 parts by H2 O
- solubility [1, 8]: 128000 µg/mL

Structure (SMILES): COc1ccc(C(F)(F)F)cc1NC(=O)c1cnc(N2CC(C)(C)NC2=O)nc1N [No. 6 (Table 1), reference compound]
- 1 part by mass dissolves in ... parts of H2O [1, 11]: 75 parts of H2 O
- solubility in water, in words ([1]; categories of the Deutsches Arzneibuch): sparingly soluble
- solubility [1, 9]: 13200 µg/mL
- solubility [1, 10]: 28.9 mM

Structure (SMILES): CCCC1(C)CN(c2ncc(C(=O)Nc3cc(C(F)(F)F)ccc3Cl)c(N)n2)C(=O)N1 (stereo not shown) [No. 8 (Table 1), reference compound]
- 1 part by mass dissolves in ... parts of H2O [1, 11]: 781 parts of H2 O
- solubility [1, 9]: 1300 µg/mL
- solubility [1, 10]: 2.59 mM

Structure (SMILES): CC1(C)CN(c2ncc(C(=O)N(c3cccc(C(F)(F)F)c3)C3CCCC3)c(N)n2)C(=O)N1 [No. 8 (Table 2)]
- 1 part by mass dissolves in ... parts by H2O [1, 7]: 60.6 parts by H2 O
- solubility [1, 8]: 16200 µg/mL

Structure (SMILES): CCCC1(C)CN(c2ncc(C(=O)Nc3ccc(Cl)c(C(F)(F)F)c3)c(N)n2)C(=O)N1 (stereo not shown) [No. 9 (Table 1), reference compound]
- solubility [1, 9]: 1300 µg/mL
- solubility [1, 10]: 2.8 mM

Structure (SMILES): CC1(C)CN(c2ncc(C(=O)N(CC3CC3)c3cccc(C(F)(F)F)c3)c(N)n2)C(=O)N1 [No. 9 (Table 2)]
- 1 part by mass dissolves in ... parts by H2O [1, 7]: 13.1 parts by H2 O
- solubility [1, 8]: 71100 µg/mL

Structure (SMILES): CCCC1(C)CN(c2ncc(C(=O)Nc3cccc(C(F)(F)F)c3)c(N)n2)C(=O)N1 (stereo not shown) [No. 10 (Table 1), reference compound]
- 1 part by mass dissolves in ... parts of H2O [1, 11]: 255 parts of H2 O
- solubility [1, 9]: 3900 µg/mL
- solubility [1, 10]: 8.54 mM

Structure (SMILES): CC1NC(=O)N(c2ncc(C(=O)Nc3cccc(C(F)(F)F)c3)c(N)n2)C1C (stereo not shown) [No. 11 (Table 1), reference compound]
- 1 part by mass dissolves in ... parts of H2O [1, 11]: 277 parts of H2 O
- solubility [1, 9]: 3600 µg/mL
- solubility [1, 10]: 8.38 mM

Second part, led by results:

- 1 part by mass dissolves in ... parts by H2O [1, 7]: 28.6 parts by H2 O
- solubility [1, 8]: 33800 µg/mL
Structure (SMILES): CC(C)N(C(=O)c1cnc(N2CC(C)(C)NC2=O)nc1N)c1ccc(F)c(C(F)(F)F)c1 [Example 35]
- change in vivo at 30 mg/kg (serum lipoproteins; [2]): 46%
- change in vivo at 30 mg/kg (serum lipoproteins; [3]): -35%
- change in vivo at 30 mg/kg (serum lipoproteins; [4]): -79%
- change in vivo at 30 mg/kg (serum lipoproteins; [5]): -69%
- change in vivo at 30 mg/kg (serum lipoproteins; [6]): -55%

- solubility ([1]; 23° C., read-out: 1 part by mass dissolves in parts of water (converted)): 400 µg/mL
- solubility ([1]; 23° C., read-out: solution that can be prepared in water): 0.93 mM
- solubility [1, 9]: 400 µg/mL
- solubility [1, 10]: 0.93 mM
Structure (SMILES): CC1(C)CN(c2ncc(C(=O)Nc3cccc(C(F)(F)F)c3)c(N)n2)C(=O)N1 [No. 1 (Table 1), hydrochloride of 4-amino-2-(4,4-dimethylimidazolidin-2-on-1-yl)pyrimidine-5-carboxylic acid N-(3-trifluoromethylphenyl)amide, reference compound]

- Solubility in water, Molarity × 10^-3 [1, 11]: 0.90 Molarity × 10^-3
Structure (SMILES): CC1(C)CN(c2ncc(C(=O)Nc3cccc(C(F)(F)F)c3)c(N)n2)C(=O)N1 [No. 2 (Table 1), reference compound]

- 1 part by mass dissolves in ... parts of H2O [1, 11]: 703 parts of H2 O
- solubility [1, 9]: 1400 µg/mL
- solubility [1, 10]: 3.17 mM
Structure (SMILES): CC1(C)CN(c2ncc(C(=O)Nc3ccc(F)c(C(F)(F)F)c3)c(N)n2)C(=O)N1 [No. 3 (Table 1), reference compound]

- 1 part by mass dissolves in ... parts of H2O [1, 11]: 217 parts of H2 O
- solubility [1, 9]: 4600 µg/mL
- solubility [1, 10]: 9.91 mM
Structure (SMILES): CC1(C)CN(c2ncc(C(=O)Nc3cc(C(F)(F)F)ccc3Cl)c(N)n2)C(=O)N1 [No. 4 (Table 1), reference compound]

- solubility [1, 9]: 1000 µg/mL
- solubility [1, 10]: 2.03 mM
Structure (SMILES): CC1(C)CN(c2ncc(C(=O)Nc3ccc(Cl)c(C(F)(F)F)c3)c(N)n2)C(=O)N1 [No. 5 (Table 1), reference compound]

- 1 part by mass dissolves in ... parts of H2O [1, 11]: 554 parts of H2 O
- solubility [1, 9]: 1800 µg/mL
- solubility [1, 10]: 3.92 mM
Structure (SMILES): COc1ccc(NC(=O)c2cnc(N3CC(C)(C)NC3=O)nc2N)cc1C(F)(F)F [No. 7 (Table 1), reference compound]
